Reference: patent US11154515B2, “Pharmaceutical compositions comprising cannabidiol and beta-caryophyllene and methods for their use” (priority 2017, dated 2021)

Legend:
[1] = tested on: male NMRI mice, mechanonociceptive threshold of the hind paws; assay: Carrageenan-induced mechanical hyperalgesia, mechanonociceptive threshold by dynamic plantar aesthesiometry; assay type: in vivo, mouse; settings: for effect on mechanonociceptive threshold when applied alone: CBD 1 mg/kg, BCP 10 mg/kg; for suppression of the mechanonociceptive threshold by carrageenan: most CBD and BCP single pre-treatments, three hours after carrageenan; for basal mechanonociceptive threshold vs vehicle-treated mice: single doses i.p. (CBD 0.5, 1, 10, 30 mg/kg; BCP 1, 5, 10, 30 mg/kg), 30 min after administration; for carrageenan-induced drop of the mechanonociceptive threshold: 3 hours after carrageenan
Protocol: CBD and BCP solutions (≥80%, FCC, FG) were dissolved in a solution containing 10% Tween 80 and 90% saline (vehicle) and were freshly prepared immediately before use. Mice were treated with drug solutions or vehicle control by intraperitoneal (i.p.) injection at a volume of 0.1 mL/10 g body weight. Acute paw injury was induced by intraplantar injection of 20 μL 3% carrageenan (dissolved in 0.9% NaCl, Sigma Aldrich, St. Louis, Mo., USA) into the right hind paw.
Experiments were performed on 7-16-week-old male NMRI mice (30-50 g) provided with standard chow and water ad libitum. Mice were divided into groups and treated with a single dose of vehicle control (VEH), CBD, BCP, or CBD+BCP delivered i.p. 30 minutes after drug administration, measurements were taken to determine baseline values for mechanonociceptive thresholds and paw volumes. 35 minutes after drug administration, 20 μL of 3% carrageenan was injected intraplantarly (i.pl.) in the right hind paws. 3 hours after carrageenan administration, additional measurements were taken to determine the mechanonociceptive thresholds and paw volumes of the ipsilateral and contralateral paws.
The mechanonociceptive threshold of the hind paws were measured by dynamic plantar aesthesiometry (DPA, Ugo Basile 37400, Comerio, Italy). Mice were placed into plexiglass boxes with a wire grid floor. After acclimation, the plantar surface was touched with a straight metal filament, lifting with increasing upward force (until the animal withdrew his paw or until the maximum force of 10 g was reached (maximum force of 10 g reached within 4 s). Mechanonociceptive thresholds are expressed in gram (g), while mechanical hyperalgesia is represented as a percentage decrease from the initial withdrawal thresholds (i.e., before drug and carrageenan administration) (Bolcskei K. et al., Pain. 2005; 117:368-76).

[2] = tested on: OXA-induced ear edema, ACD mouse model; assay: Oxazolone-induced allergic contact dermatitis model, ear edema; assay type: in vivo; settings: for OXA-induced edema formation: topically applied 1 μM
Protocol: Prednisolone was solved in 1:1 of DMSO/saline and was administered topically (15-15 μL to the inner and outer surface of the ears). All other test compounds were solved in 96% ethanol. All solutions of all the concentrations were prepared freshly on the first day of every experiment and were stored at 4° C., then shaken properly before the treatments.
Anesthesia was induced by ketamine (Richter Gedeon, Budapest, Hungary) (100 mg/kg i.p., repeated as required) with xylazine (Lavet Ltd., Budapest, Hungary) (5 mg/kg i.m.). Animals were sensitized on two consecutive days by painting 2% oxazolone (50-50 μL, Merck KGaA) on the shaved abdomen. On the 6th day the right ears were smeared with 2% oxazolone (OXA) dissolved in 96% ethanol: 15-15 μL solution was applied on each of the inner and outer surfaces. Control ears were treated with 96% ethanol in the same way. Drug-treated groups were treated with 15-15 μL of drug solution smeared to the inner and outer side of the ears every 4 hrs of the experiment after oxazolone treatment. A schematic of the experimental protocol is provided in FIG. 24 and the experimental groups are defined below. • (a) Group 1: Ethanol-treated Controls: left ear: 96% ethanol, right ear: 2% oxazolone • (b) Group 2: 1 μM CBD • (c) Group 3: 10 μM CBD • (d) Group 4: 1 μM HU101 • (e) Group 5: 10 μMHU101
Ear thickness was measured with an engineer's micrometer, with 0.1 mm accuracy, before challenge with test agents and after the challenge at different time points. Data are expressed as % increase of ear thickness compared to the initial values.
Results are expressed as mean±SEM. Comparisons between different treatment groups were performed using two-way ANOVA followed by Sidak's post hoc test for skin thickness and one-way ANOVA followed by Bonferroni's post hoc test for MPO and vascular leakage. * p<0.05 was considered to be significant.

RAW-Blue™ cells = assay: MTT cell viability assay, RAW-Blue™ cells; settings: CBD 30 μM; BCP 300 μM

| Compound | carrageenan-induced mechanical hyperalgesia ([1]; 30 mg/kg i.p., vs vehicle, p<0.001) | effect on mechanonociceptive threshold when applied alone [1] | suppression of the mechanonociceptive threshold by carrageenan [1] | basal mechanonociceptive threshold vs vehicle-treated mice [1] | carrageenan-induced drop of the mechanonociceptive threshold ([1]; 0.5 mg/kg CBD alone) | carrageenan-induced drop of the mechanonociceptive threshold ([1]; 1 mg/kg CBD alone) | Effect in ACD mouse model, significance of ear edema difference ([2]; OXA + CBD 1 μM vs. OXA + CBD 10 μM, 56 h) | Effect in ACD mouse model, significance of ear edema difference ([2]; OXA vs. OXA + CBD 1 μM, 24 h) | OXA-induced edema formation ([2]; 24 hr time-point) | OXA-induced edema formation ([2]; later time-points) | anti-inflammatory effect on OXA-induced edema ([2]; topically applied 10 μM) | toxicity (as determined by MTT assay) (RAW-Blue™ cells) |
| --- | --- | --- | --- | --- | --- | --- | --- | --- | --- | --- | --- | --- |
| C=C1CC/C=C(\C)CC[C@H]2[C@H]1CC2(C)C [BCP, (E)-beta-caryophyllene] | significantly reduced | negligible effects | only mildly influenced | none of the investigated single doses of CBD and BCP influenced the basal mechanonociceptive threshold |  |  |  |  |  |  |  |  |
| C=C(C)[C@@H]1CCC(C)=C[C@H]1c1c(O)cc(CCCCC)cc1O [CBD, cannabidiol] |  | negligible effects | only mildly influenced | none of the investigated single doses of CBD and BCP influenced the basal mechanonociceptive threshold | not influenced | not influenced | * (* p ≤ 0.05) | ** (** p ≤ 0.01) | significantly prevented | only minor | did not exert any anti-inflammatory effect | appeared to induce toxicity |
